“Also recorded” adds a separate entry of the source.
Columns and labels:
[1] = test system: primary human brain cortex-derived neural progenitor cells; assay: Differentiation of primary human neural progenitor cells (β-III-tubulin / GFAP staining); format: cell-based; details: 0.8 mg/mL, 72 hours
Description: Neural progenitor cells maintained as neurospheres were obtained from Lonza (PT-2599). Cells were thawed from a frozen vial of neurospheres and cultured in Human NeuroCult™ NS-A Complete Proliferation media (Stemcell Technologies) for 2 weeks. Neurospheres were dissociated to single cells and plated in Laminin coated wells of assay plates. The neural progenitor cells were seeded in NeuroCult™ NS-A Basal media containing 1/10th concentration of the recommended proliferation supplements, in the absence or presence of ApoTf (0.8 mg/mL) for 72 hours. At the time of analysis, cells were fixed with paraformaldehyde, stained for β-III-tubulin (R&D Systems, MAB1195) and GFAP (Invitrogen, PA3-16727), and imaged on a Molecular Devices Nano imaging instrument. Image analysis was performed by assessing the relative numbers of cells staining positive for β-III-tubulin or GFAP. Values for the indicated conditions are shown with standard deviations as “% β-III-Tubulin Positive” cells (FIG. 2A) or “% GFAP Positive” cells (FIG. 2B).

[2] = Iron saturation by ICP-AES; format: physicochemical
Excerpt: The skilled person will appreciate that transferrin iron saturation levels can be readily determined without undue burden by quantifying the total iron levels in a sample having a known transferrin concentration. The total iron levels in sample can be measured by any one of a number of methods know by those of skill in the art. Suitable examples include: • Colorimetric assays—Iron is quantitated by measuring the intensity of the violet complex formed in the reaction between ferrozine and Fe^2+ in acetate buffer at 562 nm. Thiourea or other chemicals can be added to complex contaminant metals such Cu^2+, which can also bind with ferrozine and yield falsely elevated iron values. See Ceriotti et al., Improved direct specific determination of serum iron and total iron-binding capacity Clin Chem. 1980, 26(2), 327-31, the contents of which are incorporated herein by reference. • Inductively Coupled Plasma Atomic Emission Spectroscopy (ICP-AES)—is an emission spectroscopy technique that quantifies the mass percentage of metals in a sample. ICP-AES is based on the excitation of metal atoms/ions in the sample using a plasma (an ionized gas consisting of positive ions and free electrons) and analyzing the emission wavelength of the electromagnetic radiation, which is typical of that particular metal. Even though the technique is a standard analytical technique within common general knowledge of the skilled person, further information on ICP-AES can be found in Manley et al., Simultaneous Cu-, Fe-, and Zn-specific detection of metalloproteins contained in rabbit plasma by size-exclusion chromatography-inductively coupled plasma atomic emission spectroscopy. J Biol Inorg Chem. 2009, 14, 61-74, the contents of which are incorporated herein by reference.
The preferred method of determining the iron content of a sample for the purposes of the therapeutic method of the present invention is ICP-AES. The iron saturation of transferrin is then calculated based on the transferrin protein concentration, total iron content of the sample, and the fact that wild type transferrin has two iron-binding sites. Wild type human transferrin (molecular weight 79,750) can bind two iron atoms such that a sample containing 1 g of transferrin would be 100% saturated by 1.4 mg of iron.
Protein purity was determined by SDS-PAGE. Iron saturation levels were determined using ICP-AES in accordance with the procedures outlined in Manley et al., J Biol Inorg Chem (2009) 14:61-74, the contents of which are incorporated herein by reference.

[3] = test system: C57BL/6J mice with transient MCAo; assay: Rotarod test after transient MCAo; format: in vivo, mouse; details: FIG. 10B, vs saline
Description: (§1) C57BL/6J mice (ca. 20 g) were anaesthetized under isoflurane and, after dissection, a 6.0 silicon-coated monofilament suture was inserted into the external carotid artery to occlude the middle cerebral artery (MCAo). The occlusion was carried out for 60 minutes under temperature control.
(§2) Only animals with a ‘neuroscore’ of 4 or greater were considered for further testing (n=8-10 animals/group). At six hours post-occlusion, mice were injected daily with 350 mg/kg of Apo-transferrin (i.p.) or an equal volume of saline for a total of seven days, as well as with 50 mg/kg Bromodeoxyuridine (BrdU; Sigma-Aldrich Chemical, St. Louis, Mo.), both articles delivered by intraperitoneal administration. Weight changes were monitored daily.
Mice were prepared as indicated in Example 9 above and were subjected to assessments at 3 days and 1, 2, 3, 4 weeks post-MCAo, as indicated (n=8-10 animals/group). Motor coordination (i.e. equilibrium behavior and locomotor ability as a function of cortico-striatal function) was assessed using a rotarod test. Learning and memory capacity were measured using the NORT (novel object recognition test; for example, Anglada-Huguet et al., 2014, Molecular Neurobiology, vol. 49, pages 784-795; Denninger et al., 2018, J. Vis. Exp., vol. 141, e58593).
The time that it takes an animal to fall (Latency to fall) from the rotarod is shown vs time after MCAo. […]

[4] = test system: C57BL/6J mice with transient MCAo; assay: Neurogenesis in dentate gyrus of mice after transient MCAo (BrdU/DCX, BrdU/NeuN immunohistochemistry); format: in vivo, mouse; details: 350 mg/kg i.p. daily 7 days, vs saline; for number of new neuroblasts (BrdU+/DCX+ cells): FIG. 9A, two-week period; for number of newly formed mature neurons (BrdU+/NeuN+ cells): FIG. 9B, after 4 weeks
Description: as §1, §2
At the times indicated in Example 9, brains were prepared for analysis by transcardial perfusion with ice cold heparinized saline (heparin at 2.5 IU/ml) in order to remove blood from the brains. Fresh brains were removed leaving the right cerebellum attached to whole left-brain hemisphere to help orientate the brain block in sectioning. The whole left hemisphere block was placed in 4% paraformaldehyde in 0.1 M phosphate buffer (PB) for 24 hours at +4° C., then cryoprotected in 30% sucrose in 0.1 M PB for 2-3 days on a shaker at +4° C. The brain was then blotted to remove excess liquid, placed on top of a vial cork and frozen on top of liquid nitrogen; the block was then stored at −80° C. until cryostat sections are obtained. Neurogenesis was evaluated by immunohistochemistry using antibodies against BrdU and Doublecortin (DCX) to quantify new neuroblasts or against BrdU and NeuN to quantify new neurons in the dentate gyrus of the brain.

With “apo-transferrin: iron-free form of transferrin protein, obtained and purified from pooled human plasma” the “% β-III-Tubulin Positive cells (neurons)” value ([1]; FIG. 2A) was “dramatically increases the percentage of cells differentiated to neurons; also recorded: induces primary human neural progenitor cells to become β-III-tubulin protein positive neurons”, the “% GFAP Positive cells (astrocytes)” value ([1]; FIG. 2B) was “dramatically increases; also recorded: GFAP protein positive astrocytes cells” and the “Iron Saturation (%)” value [2] was under 0.3%. For the same substance, the “motor and balance skills (Latency to fall from rotarod)” value [3] was “better motor skills; also recorded: increased motor and balance skills”, the “motor and balance skills (Latency to fall from rotarod)” value ([3]; listed as apoTf) was “better overall abilities to remain on the rotarod” and the “number of new neuroblasts (BrdU+/DCX+ cells)” value [4] was “increases the amount of neurogenesis”. The “number of new neuroblasts (BrdU+/DCX+ cells)” value ([4]; listed as ApoTf) was “increases the number of neuroblasts”, the “number of newly formed mature neurons (BrdU+/NeuN+ cells)” value [4] was “increases the amount of neurogenesis” and the “number of newly formed mature neurons (BrdU+/NeuN+ cells)” value ([4]; listed as ApoTf) was “number of newly formed mature neurons are higher”.
